The values below come from patent publication US20230107642A1 (Erasca, Inc., priority 2020, published 2023).

In the first assay the target is T1, Cys12 of the KRAS 4B G12C protein (Homo sapiens, UniProt P01116, G12C).
T1 construct: This protein contained 188 amino acids in total, including an N-terminal 6-Histidine tag; made in house; host or cells: E. coli BL21
The assay can be described thus: In vitro covalent adduct formation (CAF) assay, LC-MS intact mass. It is filed as binding. As to conditions: 10 uM compound, 60 min incubation. An outline of the steps: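 Percent covalent modification from intact-mass LC-MS, by relative free versus adducted protein (adducts within 1 Da of expected mass). Reaction: 10 μM compound with 5 μM E. coli-expressed, GDP-exchanged KRAS 4B G12C in TBS pH 7.4, 4% DMSO, 1 h at 22° C.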
On to `C=CC(=O)N1[C@H](C)CN(c2nc(=O)n3c4c(c(-c5ccc(F)cc5)c(C(F)(F)F)cc24)SC[C@@H](N2CCOCC2)C3)C[C@@H]1C` [Example 1134, (S)-8-((3S,5R)-4-acryloyl-3,5-dimethylpiperazin-1-yl)-11-(4-fluorophenyl)-3-morpholino-10-(trifluoromethyl)-3,4-dihydro-[1,4]thiazepino [2,3,4-ij]quinazolin-6(2H)-one], for which the “% CAF 10 uM @ 60 min” value was 76.8%.

Still in this assay, the particulars now being: 10 μM compound, after 1 hour.
Regarding `O=C1CC2CN(c3nc(=O)n4c5c(c(-c6ccc(F)cc6F)c(C(F)(F)F)cc35)SCCC4)CC(C1)N2C(=O)/C=C/CF` [Example 1200, (E)-11-(2,4-difluorophenyl)-8-(9-(4-fluorobut-2-enoyl)-7-oxo-3,9-diazabicyclo[3.3.1]nonan-3-yl)-10-(trifluoromethyl)-3,4-dihydro-2H,6H-[1,4]thiazepino[2,3,4-ij]quinazolin-6-one], the “CAF (% after 1 hour)” value was 73%.

Turning to `C=CC(=O)N1C[C@H](C)N(c2nc(=O)n3c4c(c(-c5ccc(F)c(Cl)c5)c(C(F)(F)F)cc24)SC[C@@H](OC)C3)C[C@H]1C` [Example 1201, (S)-8-((2S,5R)-4-acryloyl-2,5-dimethylpiperazin-1-yl)-11-(3-chloro-4-fluorophenyl)-3-methoxy-10-(trifluoromethyl)-3,4-dihydro-2H,6H-[1,4]thiazepino[2,3,4-ij]quinazolin-6-one], the “CAF (% after 1 hour)” value stood at 96%.

On to `C=CC(=O)N1C[C@H](C)N(c2nc(=O)n3c4c(c(-c5ccc(F)cc5)c(C(F)(F)F)cc24)SC[C@@H](OC)C3)C[C@H]1C` [Example 1202, (S)-8-((2S,5R)-4-acryloyl-2,5-dimethylpiperazin-1-yl)-11-(4-fluorophenyl)-3-methoxy-10-(trifluoromethyl)-3,4-dihydro-2H,6H-[1,4]thiazepino[2,3,4-ij]quinazolin-6-one], for which the “CAF (% after 1 hour)” value came to 97%.

With `C=CC(=O)N1[C@H](C)CN(c2nc(=O)n3c4c(c(-c5ccc(F)cc5)c(C(F)(F)F)cc24)SC[C@@H](OCC)C3)C[C@@H]1C` [Example 1203, (S)-8-((3S,5R)-4-acryloyl-3,5-dimethylpiperazin-1-yl)-3-ethoxy-11-(4-fluorophenyl)-10-(trifluoromethyl)-3,4-dihydro-2H,6H-[1,4]thiazepino[2,3,4-ij]quinazolin-6-one], the “CAF (% after 1 hour)” value worked out at 95%.

As to `C=CC(=O)N1[C@H](C)CN(c2nc(=O)n3c4c(c(-c5ccc(F)c(Cl)c5)c(C(F)(F)F)cc24)SC[C@@H](OCC)C3)C[C@@H]1C` [Example 1204, (S)-8-((3S,5R)-4-acryloyl-3,5-dimethylpiperazin-1-yl)-11-(3-chloro-4-fluorophenyl)-3-ethoxy-10-(trifluoromethyl)-3,4-dihydro-2H,6H-[1,4]thiazepino[2,3,4-ij]quinazolin-6-one], the “CAF (% after 1 hour)” value is 95%.

With `C=CC(=O)N1[C@H](C)CN(c2nc(=O)n3c4c(c(-c5ccc(F)cc5F)c(C(F)(F)F)cc24)SC[C@@H](OCC)C3)C[C@@H]1C` [Example 1205, (3S)-8-((3S,5R)-4-acryloyl-3,5-dimethylpiperazin-1-yl)-11-(2,4-difluorophenyl)-3-ethoxy-10-(trifluoromethyl)-3,4-dihydro-2H,6H-[1,4]thiazepino[2,3,4-ij]quinazolin-6-one], the “CAF (% after 1 hour)” value was 95%.

Regarding `C=CC(=O)N1[C@H](C)CN(c2nc(=O)n3c4c(c(-c5cc(Cl)c(F)cc5F)c(C(F)(F)F)cc24)SC[C@@H](OCC)C3)C[C@@H]1C` [Example 1206, (3S)-8-((3S,5R)-4-acryloyl-3,5-dimethylpiperazin-1-yl)-11-(5-chloro-2,4-difluorophenyl)-3-ethoxy-10-(trifluoromethyl)-3,4-dihydro-2H,6H-[1,4]thiazepino[2,3,4-ij]quinazolin-6-one], the “CAF (% after 1 hour)” value was determined as 92%.

Regarding `C=CC(=O)N1[C@H](C)CN(c2nc(=O)n3c4c(c(-c5ccc(F)cn5)c(C(F)(F)F)cc24)SC[C@@H](OC)C3)C[C@@H]1C` [Example 1207, (S)-8-((3S,5R)-4-acryloyl-3,5-dimethylpiperazin-1-yl)-11-(5-fluoropyridin-2-yl)-3-methoxy-10-(trifluoromethyl)-3,4-dihydro-2H,6H-[1,4]thiazepino[2,3,4-ij]quinazolin-6-one], the “CAF (% after 1 hour)” value stood at 95%.

Take `C=CC(=O)N1[C@H](C)CN(c2nc(=O)n3c4c(c(-c5nc(C(F)(F)F)cs5)c(C(F)(F)F)cc24)SC[C@@H](OC)C3)C[C@@H]1C` [Example 1208, (S)-8-((3S,5R)-4-acryloyl-3,5-dimethylpiperazin-1-yl)-3-methoxy-10-(trifluoromethyl)-11-(4-(trifluoromethyl)thiazol-2-yl)-3,4-dihydro-2H,6H-[1,4]thiazepino[2,3,4-ij]quinazolin-6-one]: the “CAF (% after 1 hour)” value is reported as 95%.

In the case of `C=CC(=O)N1[C@H](C)CN(c2nc(=O)n3c4c(c(-c5cc(C)c(F)cn5)c(C(F)(F)F)cc24)SC[C@@H](OC)C3)C[C@@H]1C` [Example 1209, (S)-8-((3S,5R)-4-acryloyl-3,5-dimethylpiperazin-1-yl)-11-(5-fluoro-4-methylpyridin-2-yl)-3-methoxy-10-(trifluoromethyl)-3,4-dihydro-2H,6H-[1,4]thiazepino[2,3,4-ij]quinazolin-6-one], the “CAF (% after 1 hour)” value amounted to 96%.

As to `C=CC(=O)N1C2COCC1CN(c1nc(=O)n3c4c(c(-c5cc(Cl)c(F)cc5F)c(C(F)(F)F)cc14)SC[C@@H](OC)C3)C2` [Example 1210, (3S)-8-(9-acryloyl-3-oxa-7,9-diazabicyclo[3.3.1]nonan-7-yl)-11-(5-chloro-2,4-difluorophenyl)-3-methoxy-10-(trifluoromethyl)-3,4-dihydro-2H,6H-[1,4]thiazepino[2,3,4-ij]quinazolin-6-one], the “CAF (% after 1 hour)” value turned out to be 94%.

On to `C=CC(=O)N1CCN(c2nc(=O)n3c4c(c(-c5cc(Cl)c(F)cc5F)c(C(F)(F)F)cc24)SC[C@@H](OC)C3)[C@@H]2CS(=O)(=O)C[C@@H]21` [Example 1211, (3S)-8-((4aR,7aS)-4-acryloyl-6,6-dioxidohexahydrothieno[3,4-b]pyrazin-1(2H)-yl)-11-(5-chloro-2,4-difluorophenyl)-3-methoxy-10-(trifluoromethyl)-3,4-dihydro-2H,6H-[1,4]thiazepino[2,3,4-ij]quinazolin-6-one], for which the “CAF (% after 1 hour)” value came to 97%.

Take `C=CC(=O)N1CCN(c2nc(=O)n3c4c(c(-c5cc(Cl)c(F)cc5F)c(C(F)(F)F)cc24)SC[C@@H](OC)C3)[C@@H]2CN(S(C)(=O)=O)C[C@@H]21` [Example 1212, (3S)-8-((4aS,7aR)-4-acryloyl-6-(methylsulfonyl)octahydro-1H-pyrrolo[3,4-b]pyrazin-1-yl)-11-(5-chloro-2,4-difluorophenyl)-3-methoxy-10-(trifluoromethyl)-3,4-dihydro-2H,6H-[1,4]thiazepino[2,3,4-ij]quinazolin-6-one]: the “CAF (% after 1 hour)” value was determined as 50%.

Take `C=CC(=O)N1CCN(c2nc(=O)n3c4c(c(-c5cc(Cl)c(F)cc5F)c(C(F)(F)F)cc24)SC[C@@H](OC)C3)[C@@H]2COC[C@@H]21` [Example 1213, (3S)-8-((4aR,7aS)-4-acryloylhexahydrofuro[3,4-b]pyrazin-1(2H)-yl)-11-(5-chloro-2,4-difluorophenyl)-3-methoxy-10-(trifluoromethyl)-3,4-dihydro-2H,6H-[1,4]thiazepino[2,3,4-ij]quinazolin-6-one]: the “CAF (% after 1 hour)” value was 59%.

For the molecule `C=CC(=O)N1CCN(c2nc(=O)n3c4c(c(-c5cc(Cl)c(F)cc5F)c(C(F)(F)F)cc24)SC[C@@H](OC)C3)[C@@H]2CSC[C@@H]21` [Example 1214, (3S)-8-((4aR,7aS)-4-acryloylhexahydrothieno[3,4-b]pyrazin-1(2H)-yl)-11-(5-chloro-2,4-difluorophenyl)-3-methoxy-10-(trifluoromethyl)-3,4-dihydro-2H,6H-[1,4]thiazepino[2,3,4-ij]quinazolin-6-one], the “CAF (% after 1 hour)” value was 49%.

Regarding `C=CC(=O)N1[C@H](C)CN(c2nc(=O)n3c4c(c(-c5cc(C(F)(F)F)ns5)c(C(F)(F)F)cc24)SC[C@@H](OC)C3)C[C@@H]1C` [Example 1215, (S)-8-((3S,5R)-4-acryloyl-3,5-dimethylpiperazin-1-yl)-3-methoxy-10-(trifluoromethyl)-11-(3-(trifluoromethyl)isothiazol-5-yl)-3,4-dihydro-2H,6H-[1,4]thiazepino[2,3,4-ij]quinazolin-6-one], the “CAF (% after 1 hour)” value amounted to 95%.

Take `C=CC(=O)N1[C@H](C)CN(c2nc(=O)n3c4c(c(-c5ncc(C(F)(F)F)s5)c(C(F)(F)F)cc24)SC[C@@H](OC)C3)C[C@@H]1C` [Example 1216, (S)-8-((3S,5R)-4-acryloyl-3,5-dimethylpiperazin-1-yl)-3-methoxy-10-(trifluoromethyl)-11-(5-(trifluoromethyl)thiazol-2-yl)-3,4-dihydro-2H,6H-[1,4]thiazepino[2,3,4-ij]quinazolin-6-one]: the “CAF (% after 1 hour)” value was determined as 94%.

As for `C=CC(=O)N1[C@H](C)CN(c2nc(=O)n3c4c(c(-c5ccc(F)cc5)c(C(F)(F)F)cc24)SC[C@@H](OCF)C3)C[C@@H]1C` [Example 1217, (S)-8-((3S,5R)-4-acryloyl-3,5-dimethylpiperazin-1-yl)-3-(fluoromethoxy)-11-(4-fluorophenyl)-10-(trifluoromethyl)-3,4-dihydro-2H,6H-[1,4]thiazepino[2,3,4-ij]quinazolin-6-one], the “CAF (% after 1 hour)” value is 95%.

In the case of `C=C(F)C(=O)N1[C@H](C)CN(c2nc(=O)n3c4c(c(-c5cc(Cl)c(F)cc5F)c(C(F)(F)F)cc24)SC[C@@H](OC)C3)C[C@@H]1C` [Example 1218, (3S)-11-(5-Chloro-2,4-difluorophenyl)-8-((3S,5R)-4-(2-fluoroacryloyl)-3,5-dimethylpiperazin-1-yl)-3-methoxy-10-(trifluoromethyl)-3,4-dihydro-2H,6H-[1,4]thiazepino[2,3,4-ij]quinazolin-6-one], the “CAF (% after 1 hour)” value is 66%.
